# Columns and labels:
# phospho-RSK1-Ser380 = assay: Anti-RSK1 immunoprecipitation and immunoblot in IFN-γ-stimulated PBMC-derived macrophages; assay type: cell-based, human; conditions: 10 μM pre-treatment two hours, IFN-γ up to 90 minutes, serum starvation
# Procedure: FIGS. 3A-3F show RSK1 is activated through JAK signaling and its inhibition suppresses STAT1 phosphorylation at Ser727 in human primary macrophages in response to IFN-γ. (FIG. 3A) PBMC-derived macrophages were pre-treated with DMSO or 10 μM a pan-JAK inhibitor, pyridone-6, for two hours and then stimulated with IFN-γ for indicated time under serum starvation. Cell lysates were subjected to immunoprecipitation with normal IgG or anti-RSK1 followed by immunoblot analysis using the indicated antibodies. WCL, whole cell lysate. N=3 donors. (FIG. 3B) Immunoblots of cell lysates from macrophages that were transfected with control siRNA or RSK1 siRNA followed by stimulation with IFN-γ for indicated time under serum starvation. N=2 donors. (FIG. 3C) Immunoblots of cell lysates from macrophages that were pre-treated with DMSO or BI-D1870 for two hours and subsequently left unstimulated or stimulated with IFN-γ for 1 hour under serum starvation. (FIG. 3D) Densitometric based quantification (ImageJ Software) of STAT1-pSer727 in panel (FIG. 3C) plus three additional donors. The phosphorylation levels in cells pretreated with DMSO and stimulated were defined as 1.0. Data are means±SE. […] (FIG. 3F) Quantification of PRM ions (MS/MS ions) of the indicated STAT1 peptide harboring a phosphorylation at Ser727 (and oxidized methionine, m), generated from the digest of panel […]. […]
# [1] = test system: STAT1 phosphorylation (Ser727, Tyr701); assay: Immunoblot of STAT1 phosphorylation in IFN-γ-stimulated PBMC-derived macrophages; assay type: cell-based, human; conditions: 10 μM pre-treatment, IFN-γ, cell lysates
# Procedure: FIGS. 3A-3F show RSK1 is activated through JAK signaling and its inhibition suppresses STAT1 phosphorylation at Ser727 in human primary macrophages in response to IFN-γ. (FIG. 3A) PBMC-derived macrophages were pre-treated with DMSO or 10 μM a pan-JAK inhibitor, pyridone-6, for two hours and then stimulated with IFN-γ for indicated time under serum starvation. Cell lysates were subjected to immunoprecipitation with normal IgG or anti-RSK1 followed by immunoblot analysis using the indicated antibodies. WCL, whole cell lysate. N=3 donors. (FIG. 3B) Immunoblots of cell lysates from macrophages that were transfected with control siRNA or RSK1 siRNA followed by stimulation with IFN-γ for indicated time under serum starvation. N=2 donors. (FIG. 3C) Immunoblots of cell lysates from macrophages that were pre-treated with DMSO or BI-D1870 for two hours and subsequently left unstimulated or stimulated with IFN-γ for 1 hour under serum starvation. (FIG. 3D) Densitometric based quantification (ImageJ Software) of STAT1-pSer727 in panel (FIG. 3C) plus three additional donors. The phosphorylation levels in cells pretreated with DMSO and stimulated were defined as 1.0. Data are means±SE. N=6 donors. **P<0.01 indicate significance for phosphorylation levels compared to control (treatment with DMSO and IFN-γ) by Dunnett's comparison test. (FIG. 3E) Macrophages were treated with DMSO or BI-d1870 for two hours followed by IFN-γ stimulation under serum starvation. Cell lysates were subjected to immunoprecipitation with normal IgG or anti-STAT1-pSer727 followed by SYPRO ruby stain or immunoblot analysis with the indicated antibodies. Immunoprecipitants in the gel (red square) were in-gel digested for parallel reaction monitoring (PRM) mass spectrometry. (FIG. 3F) Quantification of PRM ions (MS/MS ions) of the indicated STAT1 peptide harboring a phosphorylation at Ser727 (and oxidized methionine, m), generated from the digest of panel […].
# Cell culture of human PBMC-derived primary macrophages. […]
smiles,measurement,setting,value
CC(C)(C)c1nc2c3cc[nH]c(=O)c3c3cc(F)ccc3c2[nH]1 [Pyridone-6],phospho-RSK1-Ser380 signal,phospho-RSK1-Ser380,marked suppression
same,phospho-STAT-Ser727 signal,[1],similar
